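How tested: cells in 96-well plates exposed to compound for 48 hours at five concentrations. Here, GI50 denotes the concentration required for 50% inhibition of growth.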 Activity calls are given as the source filed them. Rule as the data show it: active = GI50 up to about 1.1 µM and inactive = higher.
How the values were obtained:
Test in all cases: NCI anticancer screen, dose series, 48 h
SR = system: SR
Malme-3M = system: Malme-3M
IGROV-1 = system: IGROV-1
SF-268 = system: SF-268
OVCAR-3 = system: OVCAR-3
SK-MEL-5 = system: SK-MEL-5
RXF 393 = system: RXF 393
HOP-62 = system: HOP-62
CCRF-CEM = system: CCRF-CEM
M14 = system: M14
A549 = system: A549
SK-OV-3 = system: SK-OV-3
OVCAR-5 = system: OVCAR-5
SN12C = system: SN12C
HCC 2998 = system: HCC 2998
OVCAR-8 = system: OVCAR-8
COLO 205 = system: COLO 205
MDA-MB-231 = system: MDA-MB-231
DU-145 = system: DU-145

Compound | GI50 (SR) | GI50 (Malme-3M) | GI50 (IGROV-1) | GI50 (SF-268) | GI50 (OVCAR-3) | GI50 (SK-MEL-5) | GI50 (RXF 393) | GI50 (HOP-62) | GI50 (CCRF-CEM) | GI50 (M14) | GI50 (A549) | GI50 (SK-OV-3) | GI50 (OVCAR-5) | GI50 (SN12C) | GI50 (HCC 2998) | GI50 (OVCAR-8) | GI50 (COLO 205) | GI50 (MDA-MB-231) | GI50 (DU-145)
COC1=CC(=O)NCCN1 | > 100 µM (inactive) | > 100 µM (inactive) | > 100 µM (inactive) | > 100 µM (inactive) | > 100 µM (inactive) | > 100 µM (inactive) | > 100 µM (inactive) | > 100 µM (inactive) | 51.4 µM (inactive) | > 100 µM (inactive) | > 100 µM (inactive) | > 100 µM (inactive) | > 100 µM (inactive) | > 100 µM (inactive) | > 100 µM (inactive) | > 100 µM (inactive) | 41.8 µM (inactive) |  | 
CCCCCCCCCCCCCCCCCCNC(=S)N/C=C1/C(=O)C=C(C)OC1=O |  |  | 16.9 µM (inactive) |  | 32.1 µM (inactive) | 29.6 µM (inactive) |  | 31.8 µM (inactive) |  | 18 µM (inactive) | 25.9 µM (inactive) | 58.2 µM (inactive) | 18.4 µM (inactive) | 37.8 µM (inactive) | 9.53 µM (inactive) | 23.8 µM (inactive) | 27.7 µM (inactive) | 33 µM (inactive) | 24.9 µM (inactive)
O=C1C(=O)N(c2ccc(Cl)cc2Cl)C(=O)C(=O)C1c1nc2ccccc2s1 | 28.2 µM (inactive) | > 100 µM (inactive) | > 100 µM (inactive) | > 56.4 µM (inactive) | > 100 µM (inactive) | 65.2 µM (inactive) | > 100 µM (inactive) | > 100 µM (inactive) | 25 µM (inactive) | > 100 µM (inactive) | > 100 µM (inactive) | > 100 µM (inactive) | > 100 µM (inactive) | > 100 µM (inactive) | > 100 µM (inactive) | > 100 µM (inactive) | > 100 µM (inactive) |  | 
CN(C)C(=O)/N=c1\ss/c(=N\C(=S)N(C)C)n1-c1ccccc1 | 10 µM (inactive) | 42.9 µM (inactive) | 29.4 µM (inactive) | 25.6 µM (inactive) | 21.2 µM (inactive) | 29.6 µM (inactive) | 38.4 µM (inactive) | > 68.9 µM (inactive) | 0.184 µM (active) | 20 µM (inactive) | 35.5 µM (inactive) | > 100 µM (inactive) | > 90.2 µM (inactive) | 45.8 µM (inactive) | > 100 µM (inactive) | 20.9 µM (inactive) | 35.3 µM (inactive) |  | 
CCOC(=O)CCC(NC(=O)c1ccc(/N=C/c2nc3ccccc3nc2-c2ccccc2)cc1)C(=O)OCC (centres undefined) | > 100 µM (inactive) | > 100 µM (inactive) | > 100 µM (inactive) | > 100 µM (inactive) | > 100 µM (inactive) | > 100 µM (inactive) | 64.9 µM (inactive) | > 100 µM (inactive) | > 100 µM (inactive) | 82 µM (inactive) | > 100 µM (inactive) | > 100 µM (inactive) | > 100 µM (inactive) | 79.1 µM (inactive) | > 100 µM (inactive) | 13.9 µM (inactive) | > 100 µM (inactive) |  | 
N#Cc1nn(-c2ccc(Cl)cc2)c(=N)c2c(N)n3nc(-c4ccccc4)cc3nc12 | < 0.01 µM (active) | 1 µM (active) | 0.546 µM (active) | 0.635 µM (active) | 0.804 µM (active) | 0.809 µM (active) | 28.2 µM (inactive) | 0.485 µM (active) | 1 µM (active) | 1 µM (active) | 1 µM (active) | 0.472 µM (active) | 1 µM (active) | 1 µM (active) | < 0.01 µM (active) | 0.64 µM (active) | 1 µM (active) |  | 
COc1cc(/C=C2/C(=O)N(C(=O)OC(C)C)C(Cc3cc(OC)c(OC)c(C)c3OC)C(=O)N2Cc2ccccc2)c(OC)c(C)c1OC (centres undefined) | 7.24 µM (inactive) | 22.2 µM (inactive) | > 100 µM (inactive) | > 100 µM (inactive) | 12.7 µM (inactive) | 14.4 µM (inactive) | 20.4 µM (inactive) | > 100 µM (inactive) | 13.1 µM (inactive) | 50.9 µM (inactive) | 56.9 µM (inactive) | 91.2 µM (inactive) | > 100 µM (inactive) | 54.8 µM (inactive) | 38.4 µM (inactive) | 28.2 µM (inactive) | 27.2 µM (inactive) |  | 
CC1(C)OC(=O)[C@@](C)([C@H](O)c2ccccc2)O1 | 50.6 µM (inactive) | 28.7 µM (inactive) | 94.6 µM (inactive) | > 100 µM (inactive) | 35.8 µM (inactive) | 40.1 µM (inactive) | > 100 µM (inactive) | > 100 µM (inactive) | > 100 µM (inactive) | > 100 µM (inactive) | 83.2 µM (inactive) | > 100 µM (inactive) |  | > 100 µM (inactive) | 71 µM (inactive) | > 100 µM (inactive) |  |  | 
O=c1c([Se]c2coc3ccccc3c2=O)coc2ccccc12 | 4.72 µM (inactive) | 17.8 µM (inactive) | 10.5 µM (inactive) | 19.5 µM (inactive) | 18 µM (inactive) | 16.3 µM (inactive) | 15.9 µM (inactive) | 4.89 µM (inactive) | 18.1 µM (inactive) | 14.9 µM (inactive) | 6.3 µM (inactive) | 16.2 µM (inactive) | 16.2 µM (inactive) | 15 µM (inactive) | 17.7 µM (inactive) | 12.7 µM (inactive) | 16.2 µM (inactive) |  | 
CN(C)CC(/C(Cc1ccccc1)=N\NC(=O)C[n+]1ccccc1)c1ccccc1 (centres undefined) | > 100 µM (inactive) | > 100 µM (inactive) | > 100 µM (inactive) | > 100 µM (inactive) | > 100 µM (inactive) | > 100 µM (inactive) | > 100 µM (inactive) | > 100 µM (inactive) | > 100 µM (inactive) | > 100 µM (inactive) | > 100 µM (inactive) | > 100 µM (inactive) | > 100 µM (inactive) | > 100 µM (inactive) | > 100 µM (inactive) | 35.1 µM (inactive) | > 100 µM (inactive) |  | 
CC1=C2C3OC(=O)C(C)C3C(O)C[C@@]2(C)C(=O)CC1 (some centres undefined) | > 100 µM (inactive) | > 100 µM (inactive) | > 100 µM (inactive) | > 100 µM (inactive) | > 100 µM (inactive) | > 100 µM (inactive) | > 100 µM (inactive) | > 100 µM (inactive) | > 100 µM (inactive) | > 100 µM (inactive) | > 100 µM (inactive) | > 100 µM (inactive) | > 100 µM (inactive) | > 100 µM (inactive) | > 100 µM (inactive) | > 100 µM (inactive) | > 100 µM (inactive) |  | 
CCC(=O)OC1CCn2c1nc1c2C(=O)C(C)=C(NC(C)=O)C1=O (centres undefined) | 1.91 µM (inactive) | 1.61 µM (inactive) | 2.19 µM (inactive) | 1.74 µM (inactive) | 0.236 µM (active) | 1.83 µM (inactive) | 1.73 µM (inactive) | 11.7 µM (inactive) | 0.736 µM (active) | 1.89 µM (inactive) | 2.05 µM (inactive) | 3.87 µM (inactive) | 1.92 µM (inactive) | 1.79 µM (inactive) | 2.31 µM (inactive) | 0.641 µM (active) | 3.52 µM (inactive) |  | 

Reference: ChEMBL document CHEMBL1201862, “PubChem BioAssay data set” (2004)
